In brackets after ≈: the same amount, converted by molar mass. One block for each compound: values may come before it.
What was measured:
Type in all cases: cell-based
[1] = Cytotoxicity, microculture tetrazolium (MTT) test, H1HeLa; conditions: human, H1HeLa cells (cervical adenocarcinoma, ATCC CRL-1958); H1HeLa (cervical adenocarcinoma), 24 h incubation, MTT; ± SD
Procedure: (§1) The cytotoxicity of biaryl monophosphines was tested in vitro in normal (VERO) and cancer-derived (H1HeLa) cells after 24 h of incubation using a microculture tetrazolium test. Table 2 presents the CC50 (concentrations decreasing the cellular viability by 50%) values calculated from dose–response cytotoxicity curves (Figure 4).
(§2) Cytotoxicity was evaluated using a microculture tetrazolium test as previously described, and details can be found in the Supplementary Materials. The cell lines used in the presented study were acquired from the American Type Culture Collection (ATCC); the one used for cytotoxicity testing included non-cancerous VERO (kidney; ATCC CCL-81) cells and cancer-originating H1HeLa (cervical adenocarcinoma; ATCC CRL-1958) cells. VERO cells were cultured in Dulbecco’s Modified Eagle’s Medium (DMEM; Corning, Tewksbury, MA, USA), while Eagle’s Minimum Essential Medium (MEM; Corning) was used for H1HeLa. Antibiotics (penicillin–streptomycin solution, Corning) and fetal bovine serum (FBS, Corning) were added to cell media. Cells were incubated in a 5% CO2 atmosphere at 37 °C (CO2 incubator, Panasonic Healthcare Co., Tokyo, Japan). Briefly, the monolayers of VERO or H1HeLa cells in 96-well plates (Falcon, Corning) were treated with serial dilutions of selected compounds for 24 h. After this, the medium was removed, the plates were washed with phosphate buffered saline (PBS; Corning), a 10% solution of (3-(4,5-dimethylthiazol-2-yl)-2,5-diphenyltetrazolium bromide (MTT; Sigma-Aldrich, St. Louis, MO, USA) (5 mg/mL) in FBS-free cell media was added, and the incubation continued for the next 4 h. Subsequently, the precipitated formazan crystals were dissolved, and after overnight incubation at 37 °C, the Synergy H1 Multi-Mode Microplate Reader (BioTek Instruments, Inc., Winooski, VT, USA) with Gen5 software (ver. 3.09.07; BioTek Instruments, Inc.) was used for absorbance acquisition (540 and 620 nm). Data was exported to GraphPad Prism (ver. 10) to calculate the CC50 values (50% cytotoxic concentration) from dose–response curves.
(§3) Aromaticity Tuning in Biaryl Monophosphines and Their Derivatives […]
(§4) Cell line maintenance and in vitro experiments
(§5) The cytotoxicity of selected biaryl monophosphines was evaluated in vitro towards normal VERO (ATCC, CCL-81) cells and cancer-derived cell line H1HeLa (cervical adenocarcinoma; ATCC (American Type Culture Collection) CRL-1958) using 3-(4,5-dimethylthiazol-2-yl)-2,5-diphenylte-trazolium bromide (MTT) based protocol.
(§6) Media used for in vitro culturing included Dulbecco's Modified Eagle's Medium (DMEM, Corning, Tewksbury, MA, USA) used for VERO cells and Modified Eagle Medium (MEM, Corning) used for H1HeLa. Cell media used in the experiments were supplemented with antibiotics (Penicil-lin-Streptomycin Solution, Corning) and fetal bovine serum (FBS, Corning) – 10% (cell passaging) and 2% (cell maintenance and experiments). Phosphate-buffered saline (PBS) and trypsin were bought from Corning, whereas MTT (3-(4,5-dimethylthiazol-2-yl)-2,5-diphenyltetrazolium bromide) from Sigma (Sigma-Aldrich, St. Louis, MO, USA). SDS was purchased from PanReac Applichem (Darmstadt, Germany). Incubation was carried out in a 5% CO2 atmosphere at 37°C (CO2 incubator, Panasonic Healthcare Co., Tokyo, Japan).
(§7) Concentrations of cells for passaging were as follows: VERO – 1.5*10^5 cells/mL, H1HeLa – 2*10^5 cells/mL. Routine observations of cell cultures and experiments were carried out using an in-verted microscope (CKX41, Olympus Corporation, Tokyo, Japan) equipped with a ca mera (Moti-cam 3+, Motic, Hong Kong), and the results were recorded (Motic Images Plus 2.0, Motic).
(§8) Stock solutions of biaryl monophosphines were prepared by dissolving the samples in cell culture grade DMSO (PanReac Applichem).
(§9) Evaluation of cytotoxicity
(§10) Cytotoxicity was tested using an MTT-based protocol. The cells were passaged into 96-well plates (Falcon, TC-treated, Corning) and, after overnight incubation, treated with serial dilutions of […]

H1HeLa cells = test: as above; conditions: H1HeLa, 24 h, microscopy
Procedure: as §1, §2, §3, §4, §5, §6, §7, §8, §9, §10

Gram-positive bacteria = test: Antibacterial screening, summary over the three Gram-positive reference species; conditions: range over three Gram-positive reference species
Procedure: The antimicrobial activities of a series of compounds 1–5 were tested through the utilization of seven reference species, encompassing both Gram-positive (Staphylococcus aureus ATCC 29213, Staphylococcus epidermidis ATCC 12228, Micrococcus luteus ATCC 10240) and Gram-negative (Escherichia coli ATCC 25922, Klebsiella pneumoniae ATCC 13883, Proteus mirabilis ATCC 12453, Acinetobacter baumannii ATCC 19606) bacteria as model microorganisms. For this purpose, microbial suspensions were prepared in sterile saline (0.85% NaCl) with an optical density of 0.5 McFarland standard, yielding a concentration of 150 × 10^6 CFU/mL (CFU, colony-forming units). All of the stock solutions of the tested compounds were dissolved in DMSO. Amoxicillin (Glentham Life Sciences Ltd., Corsham, UK) was used as a positive control.
The MIC values of the tested compounds were determined by serial twofold dilutions of 1–5 in Mueller Hinton Broth (MHB, Biomaxima, Lublin, Poland). The range of final 1–5 concentrations used was from 0.49 up to 1000 μg/mL, and for amoxicillin from 0.12 up to 250 μg/mL in the 96-well microtiter plates (Medlab, Raszyn, Poland), starting with 98 μL MHB and 2 μL bacterial inoculum added to each well. […] After incubation, the optical density of the microbial growth was measured at a wavelength of 600 nm using a microplate reader, the Biotek Elx800 (BioTek Instruments, Inc., Winooski, VT, USA). […]

SMILES: COc1cc(OC)c(-c2c(P(=O)(C3CCCCC3)C3CCCCC3)c(OC)c3ccccc3c2OC)c(OC)c1 [Compound 1, Dicyclohexyl[1,4-dimethoxy-3-(2,4,6-trimethoxyphenyl)naphthalen-2-yl]phosphane oxide]
- CC50 at 24 h [1]: 6.78 ± 0.27 µg/mL
- influence on morphology of the cellular monolayer (H1HeLa cells; 12.5 µg/mL): monolayer of H1Hela was destroyed

- MIC (Gram-positive bacteria): 1.95 to 15.6 µg/mL (≈ 3.85 to 30.9 µM)
SMILES: COc1ccccc1-c1c(P(=O)(C2CCCCC2)C2CCCCC2)c(OC)c2ccccc2c1OC [Compound 2, Dicyclohexyl[1,4-dimethoxy-3-(2-methoxyphenyl)naphthalen-2-yl]phosphane oxide]
- CC50 at 24 h [1]: 5.92 ± 0.4 µg/mL
- influence on morphology of the cellular monolayer (H1HeLa cells; 12.5 µg/mL): monolayer of H1Hela was destroyed
- MBC (Gram-positive bacteria): > 1000 µg/mL

SMILES: COc1cc(OC)c(-c2c(P(=O)(C3CCCCC3)C3CCCCC3)c(O)c3ccccc3c2OC)c(OC)c1 [Compound 3, 2-(Dicyclohexylphosphoryl)-4-methoxy-3-(2,4,6-trimethoxyphenyl)naphthalen-1-ol]
- CC50 at 24 h [1]: 3.83 ± 0.33 µg/mL
- influence on morphology of the cellular monolayer (H1HeLa cells; 1.6 µg/mL): the cellular monolayer resembled the control cells
- influence on morphology of the cellular monolayer (H1HeLa cells; 3.1 µg/mL): only a fraction of shrunken cells visible
- influence on morphology of the cellular monolayer (H1HeLa cells; 6.3 µg/mL): most of the cells showed cytotoxic damage
- influence on morphology of the cellular monolayer (H1HeLa cells; 12.5 µg/mL): destroyed the cellular monolayer

Source: article PMC12525867, “Aromaticity Tuning in Biaryl Monophosphines and Their Derivatives” (Molecules, 2025)
